In the NIST ThermoML archive (doi:10.1016/j.fluid.2014.08.005):
Numbers after ± are expanded uncertainties.

Key:
[1] = for viscosity / mass density: 101.33 kPa, Liquid; for viscosity: Cone and plate viscometry; for mass density: Vibrating tube method; for surface tension liquid-gas: Pendant drop shape
[2] = refractive index (Na D-line) (dimensionless); settings: 101.33 kPa, Liquid, Standard Abbe refractometry

CC[S+](CC)CC.O=S(=O)([N-]S(=O)(=O)C(F)(F)F)C(F)(F)F [triethylsulfonium bis((trifluoromethyl)sulfonyl)imide]
Settings	mass density, [1] [kg/m3]	refractive index, [2]	surface tension liquid-gas, [1] [mN/m]	viscosity, [1] [mPa·s]
283.15 K	1477 ± 1.2	1.43056 ± 0.00037	–	64.4 ± 0.6
288.15 K	1472 ± 1.2	1.42906 ± 0.00037	–	51.1 ± 0.5
293.15 K	1467.1 ± 1.2	1.42765 ± 0.00037	–	41.1 ± 0.4
293.3 K	–	–	35.5 ± 0.4	–
298.15 K	1462.1 ± 1.2	1.42632 ± 0.00037	–	33.9 ± 0.3
298.2 K	–	–	35.2 ± 0.4	–
303.15 K	1457.3 ± 1.2	1.42472 ± 0.00037	–	28.2 ± 0.3
303.2 K	–	–	35 ± 0.4	–
308.15 K	1452.4 ± 1.2	1.42325 ± 0.00037	–	23.8 ± 0.2
313.1 K	–	–	34.4 ± 0.4	–
313.15 K	1447.6 ± 1.2	1.42185 ± 0.00037	–	20.3 ± 0.2
318.15 K	1442.8 ± 1.2	1.42044 ± 0.00037	–	17.5 ± 0.2
323 K	–	–	34 ± 0.4	–
323.15 K	1438.1 ± 1.1	1.41906 ± 0.00037	–	15.2 ± 0.2
328.15 K	1433.4 ± 1.1	1.41767 ± 0.00037	–	13.4 ± 0.1
333.1 K	–	–	33.4 ± 0.4	–
333.15 K	1428.7 ± 1.1	1.41629 ± 0.00037	–	11.8 ± 0.1
338.15 K	1424 ± 1.1	1.4149 ± 0.00037	–	10.5 ± 0.1
343.1 K	–	–	32.9 ± 0.4	–
343.15 K	1419.4 ± 1.1	1.41353 ± 0.00037	–	9.4 ± 0.1
348.15 K	1414.8 ± 1.1	1.41215 ± 0.00037	–	8.5 ± 0.1
353.15 K	1410.2 ± 1.1	1.41077 ± 0.00037	–	7.7 ± 0.1

CCCC[N+](C)(CCCC)CCCC.O=S(=O)([N-]S(=O)(=O)C(F)(F)F)C(F)(F)F [tributylmethylammonium bis((trifluoromethyl)sulfonyl)imide]
Settings	mass density, [1] [kg/m3]	refractive index, [2]	surface tension liquid-gas, [1] [mN/m]	viscosity, [1] [mPa·s]
283.15 K	1276 ± 1.1	1.4308 ± 0.00037	–	2049.8 ± 150
288.15 K	1271.7 ± 1.1	1.42933 ± 0.00037	–	1264 ± 83
293.15 K	1267.3 ± 1.1	1.42787 ± 0.00037	–	819.2 ± 47
293.3 K	–	–	30.8 ± 0.4	–
298.15 K	1262.8 ± 1.1	1.42643 ± 0.00037	–	538.9 ± 26
298.2 K	–	–	30.6 ± 0.4	–
303.15 K	1258.4 ± 1.1	1.42491 ± 0.00037	–	369.3 ± 15
303.2 K	–	–	30.2 ± 0.4	–
308.15 K	1254.1 ± 1.1	1.42338 ± 0.00037	–	260.4 ± 8.8
313.15 K	1249.9 ± 1.1	1.42194 ± 0.00037	–	189.5 ± 5.2
313.2 K	–	–	29.7 ± 0.4	–
318.15 K	1245.8 ± 1.1	1.42047 ± 0.00037	–	139.6 ± 3
323.15 K	1241.7 ± 1.1	1.41902 ± 0.00037	–	105.6 ± 1.7
323.2 K	–	–	29.1 ± 0.4	–
328.15 K	1237.6 ± 1.1	1.41758 ± 0.00037	–	81.5 ± 1
333.15 K	1233.6 ± 1.1	1.41613 ± 0.00037	–	64.1 ± 0.6
338.15 K	1229.5 ± 1.1	1.41468 ± 0.00037	–	51.1 ± 0.5
343.15 K	1225.5 ± 1.1	1.41324 ± 0.00037	–	41.4 ± 0.4
348.15 K	1221.5 ± 1.1	1.4118 ± 0.00037	–	34 ± 0.3
353.15 K	1217.5 ± 1.1	1.4104 ± 0.00037	–	28.3 ± 0.3

CC[S+](C)CC.O=S(=O)([N-]S(=O)(=O)C(F)(F)F)C(F)(F)F [diethylmethylsulfonium bis[(trifluoromethyl)sulfonyl]imide]
Settings	mass density, [1] [kg/m3]	refractive index, [2]	surface tension liquid-gas, [1] [mN/m]	viscosity, [1] [mPa·s]
283.15 K	1517.3 ± 1.2	1.42745 ± 0.00037	–	78.3 ± 0.9
288.15 K	1512.2 ± 1.2	1.42597 ± 0.00037	–	62.1 ± 0.6
293.15 K	1507.2 ± 1.2	1.42452 ± 0.00037	–	49.9 ± 0.5
293.2 K	–	–	35.7 ± 0.4	–
298.15 K	1502.3 ± 1.2	1.42325 ± 0.00037	–	41.1 ± 0.4
298.2 K	–	–	35.5 ± 0.4	–
303.15 K	1497.3 ± 1.2	1.42168 ± 0.00037	–	34.1 ± 0.3
303.2 K	–	–	35.3 ± 0.4	–
308.15 K	1492.4 ± 1.2	1.42026 ± 0.00037	–	28.7 ± 0.3
313.1 K	–	–	34.8 ± 0.4	–
313.15 K	1487.6 ± 1.2	1.41886 ± 0.00037	–	24.4 ± 0.2
318.15 K	1482.8 ± 1.2	1.41744 ± 0.00037	–	21 ± 0.2
323.1 K	–	–	34.4 ± 0.4	–
323.15 K	1478 ± 1.2	1.41606 ± 0.00037	–	18.2 ± 0.2
328.15 K	1473.2 ± 1.2	1.41468 ± 0.00037	–	15.9 ± 0.2
333.1 K	–	–	33.9 ± 0.4	–
333.15 K	1468.5 ± 1.2	1.41331 ± 0.00037	–	14 ± 0.1
338.15 K	1463.8 ± 1.2	1.41195 ± 0.00037	–	12.5 ± 0.1
343.1 K	–	–	33.4 ± 0.4	–
343.15 K	1459.1 ± 1.2	1.41058 ± 0.00037	–	11.1 ± 0.1
348.15 K	1454.5 ± 1.2	1.40925 ± 0.00037	–	10 ± 0.1
353.15 K	1449.8 ± 1.2	1.40793 ± 0.00037	–	9 ± 0.1

CCCC[N+](C)(C)C.O=S(=O)([N-]S(=O)(=O)C(F)(F)F)C(F)(F)F [butyltrimethylammonium bis(trifluoromethylsulfonyl)imide]
Settings	mass density, [1] [kg/m3]	refractive index, [2]	surface tension liquid-gas, [1] [mN/m]	viscosity, [1] [mPa·s]
283.15 K	1407.8 ± 1.1	1.4122 ± 0.00037	–	254.2 ± 8.5
288.15 K	1403.2 ± 1.1	1.41083 ± 0.00037	–	184.6 ± 5
293.15 K	1398.7 ± 1.1	1.40945 ± 0.00037	–	137.7 ± 2.9
293.2 K	–	–	33.4 ± 0.4	–
298.15 K	1394.2 ± 1.1	1.40818 ± 0.00037	–	105.2 ± 1.7
298.2 K	–	–	33.2 ± 0.4	–
303.15 K	1389.8 ± 1.1	1.40676 ± 0.00037	–	82 ± 1
303.2 K	–	–	33 ± 0.4	–
308.15 K	1385.4 ± 1.1	1.40538 ± 0.00037	–	65.2 ± 0.7
313.1 K	–	–	32.5 ± 0.4	–
313.15 K	1381 ± 1.1	1.40405 ± 0.00037	–	52.7 ± 0.5
318.15 K	1376.6 ± 1.1	1.40273 ± 0.00037	–	43.2 ± 0.4
323.1 K	–	–	32 ± 0.4	–
323.15 K	1372.3 ± 1.1	1.40142 ± 0.00037	–	35.9 ± 0.4
328.15 K	1368 ± 1.1	1.40006 ± 0.00037	–	30.2 ± 0.3
333.1 K	–	–	31.5 ± 0.4	–
333.15 K	1363.7 ± 1.1	1.39877 ± 0.00037	–	25.7 ± 0.3
338.15 K	1359.5 ± 1.1	1.39747 ± 0.00037	–	22 ± 0.2
343.15 K	1355.2 ± 1.1	1.39616 ± 0.00037	–	19.1 ± 0.2
348.15 K	1351 ± 1.1	1.39486 ± 0.00037	–	16.7 ± 0.2
353.15 K	1346.8 ± 1.1	1.39358 ± 0.00037	–	14.7 ± 0.2
